Experiments:
[1] = In vivo local sequestration at the injection site by serial scintigrams (intramuscular or intratumoral injection); parameters: species or system Fischer rats
Experimental: To further study the localization of unsealed radiopharmaceuticals after injection, in vivo imaging studies were carried out comparing ^111In DTPA (In-DTPA) (negative control) and Indium-111-Iron Macroaggregate (^111In-IMA) (positive control) to ^111In—Cl. ^111In emits gamma rays that can be detected using a gamma camera. ^111In-IMA was generated according to methods disclosed in U.S. Ser. No. 10/724,027, incorporated herein by reference. Each radiopharmaceutical was administered by intramuscular injection into the thigh muscle of Fischer rats which weighed approximately 200 grams. Two different doses of ^111In—Cl were administered to the rats, 0.4 and 0.8 mCi in 0.2 ml saline. Distribution of the ^111In—Cl was determined through serial scintigrams. […] In comparison, when ^111In-IMA was administered to rats, consistent retention (84%) of the ^111In-IMA was found 70 hours after administration (FIG. 8). Persistent intramuscular localization of ^111In—Cl was also found in rats for both dose levels of ^111In—Cl, with over 50% of the injected ^111In—Cl remaining in the injection site after three days.
To investigate whether the addition of free iron to radionuclides would increase the locoregional retention of various radionuclides, admixtures of ^67Ga-citrate, YCl3, or ^111In—Cl, were prepared with FeCl3.6H2O at 1-5 mg Fe/ml. Each radionuclide combination/admixture was administered either by intramuscular (IM) injection into the thigh muscle of the left leg (0.1-1.0 mCi) or by intratumoral (IT) injection into a tumor in the right leg (0.4-5.0 mCi) of Fischer rats. Distribution of the radionuclide was determined through serial scintigrams. Whole body images were acquired with a Siemens M-CAM camera using respective photo peaks of Ga-67, Tl-201 (for Y-90), or In-111, and 15-20% windows in photo energy. The typical imaging time was 0.5 to 5 minutes. A respective standard was present in the field of view (0.1-0.5 mCi), and used for image quantification by comparing images with the standard and normalizing the initial injection time as 100%. The Fe content in each combination/admixture was 1 mg in the total injectate.

[2] = intravenous (Hirano et al. 1993); cited from earlier work

SMILES: [Cl][90Y]([Cl])[Cl] [YCl3, Yttrium-90 chloride]
- retention time with free iron ([1]; admixture with FeCl3.6H2O, intramuscular or intratumoral injection): Increase in the retention time
- time over which cleared from the injection site ([1]; intramuscular injection in rats, without free iron, FIG. 15): approximately 20 hours
- retention in the injection site ([1]; intramuscular injection, without free iron): not locally sequestered
- formation of colloidal material in blood plasma [2]: dose-dependent formation of colloidal material
- primary target organs [2]: liver and spleen

Source: patent publication US8329141B2, “Locoregional internal radionuclide ablation of abnormal tissues” (Board of Regents, The University of Texas System, priority 2004, dated 2012)
